# Molecular target: T1, CTC1_C584 (Homo sapiens, UniProt Q2NKJ3)
# T1 construct: endogenous in cells; host or cells: 22Rv1
# T1 sequence (Q2NKJ3 1-1217): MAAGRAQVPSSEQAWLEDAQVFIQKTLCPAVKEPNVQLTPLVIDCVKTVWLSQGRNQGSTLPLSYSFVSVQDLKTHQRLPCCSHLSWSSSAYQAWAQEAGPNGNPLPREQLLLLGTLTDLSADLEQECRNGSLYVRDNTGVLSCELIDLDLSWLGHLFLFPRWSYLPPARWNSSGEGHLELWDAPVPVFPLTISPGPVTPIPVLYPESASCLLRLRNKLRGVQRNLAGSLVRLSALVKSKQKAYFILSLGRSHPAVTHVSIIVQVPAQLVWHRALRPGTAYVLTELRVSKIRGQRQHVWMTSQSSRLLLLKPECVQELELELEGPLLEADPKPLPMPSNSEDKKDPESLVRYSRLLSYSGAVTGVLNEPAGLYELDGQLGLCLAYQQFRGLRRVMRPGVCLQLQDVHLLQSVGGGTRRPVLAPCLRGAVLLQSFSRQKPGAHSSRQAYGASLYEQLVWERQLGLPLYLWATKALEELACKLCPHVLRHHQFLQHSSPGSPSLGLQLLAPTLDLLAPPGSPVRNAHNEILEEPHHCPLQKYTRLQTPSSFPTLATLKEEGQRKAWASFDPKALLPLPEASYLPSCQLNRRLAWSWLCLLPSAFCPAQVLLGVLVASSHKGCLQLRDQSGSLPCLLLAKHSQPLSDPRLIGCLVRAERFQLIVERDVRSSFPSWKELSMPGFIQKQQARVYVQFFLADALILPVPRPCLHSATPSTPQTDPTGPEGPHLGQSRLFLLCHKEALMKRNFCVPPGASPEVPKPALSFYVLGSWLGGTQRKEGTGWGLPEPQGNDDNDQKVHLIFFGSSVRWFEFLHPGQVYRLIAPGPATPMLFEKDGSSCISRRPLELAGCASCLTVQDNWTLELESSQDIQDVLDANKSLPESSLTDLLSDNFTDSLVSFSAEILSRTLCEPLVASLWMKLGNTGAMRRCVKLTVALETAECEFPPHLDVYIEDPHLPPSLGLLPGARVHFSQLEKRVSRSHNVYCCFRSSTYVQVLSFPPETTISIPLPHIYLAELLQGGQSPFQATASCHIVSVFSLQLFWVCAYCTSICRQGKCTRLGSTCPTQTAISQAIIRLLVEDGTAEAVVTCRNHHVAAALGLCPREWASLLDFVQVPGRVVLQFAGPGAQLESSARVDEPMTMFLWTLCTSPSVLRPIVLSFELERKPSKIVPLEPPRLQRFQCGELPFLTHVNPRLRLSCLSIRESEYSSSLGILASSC
# Test: IA-DTB cysteine engagement
# Format: binding
# Conditions: 22Rv1 cells, 20 μM probe, 1 h, relative to DMSO
# In short: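 In-situ probe treatment of cells; lysate 2 mg/mL, IA-DTB 1 h RT; MeOH/CHCl3 precipitation, DTT/iodoacetamide, trypsin; streptavidin enrichment; TMT labeling, high-pH fractionation. Ratio = TMT reporter intensity / mean DMSO channels, median-normalized.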
row,% engagement CTC1_C584 [%],Structure (SMILES)
1,20.25,"C=CC(=O)N1C[C@@H](c2ccc(Br)cc2)[C@H]1C(=O)Nc1cccc2cccnc12 [MY-1A, (2S,3R)-1-acryloyl-3-(4-bromophenyl)-N-(quinolin-8-yl)azetidine-2-carboxamide]"
2,37.25,"C=CC(=O)N1C[C@H](c2ccc(Br)cc2)[C@@H]1C(=O)Nc1cccc2cccnc12 [MY-1B, (2R,3S)-1-acryloyl-3-(4-bromophenyl)-N-(quinolin-8-yl)azetidine-2-carboxamide]"
3,66.25,"C=CC(=O)N1C[C@H](c2ccc(Br)cc2)[C@H]1C(=O)Nc1cccc2cccnc12 [MY-3B, (2S,3S)-1-acryloyl-3-(4-bromophenyl)-N-(quinolin-8-yl)azetidine-2-carboxamide]"
4,23.5,"C=CC(=O)N1C[C@H](c2ccc(Br)cc2)[C@H]1C(=O)Nc1cccc2cccnc12 [MY-3A, (2S,3S)-1-acryloyl-3-(4-bromophenyl)-N-(quinolin-8-yl)azetidine-2-carboxamide]"

# Reference: patent US20250034216A1, “STEREOSELECTIVE COVALENT LIGANDS FOR ONCOGENIC AND IMMUNOLOGICAL PROTEINS” (The Scripps Research Institute, priority 2021, published 2025)
